Measurements: patent US20260158094A1, “COMPOSITION FOR PREVENTING, IMPROVING OR TREATING SKELETAL MUSCLE ATROPHY OR SARCOPENIA COMPRISING EXTRACT OR ISOLATED COMPOUND FROM STELLARIA DICHOTOMA AS ACTIVE INGREDIENT” (INDUSTRY-UNIVERSITY COOPERATION FOUNDATION HANYANG …, priority 2023, published 2026)
Several values for one entry are separate records, joined by “and”; a condition that tells them apart may be missing. Equal entries are not always repeated. Marks after values point to notes of the source that are not given here.

What was measured:
[1] = system: C2C12 myotubes; assay: Dexamethasone-induced atrophy of differentiated C2C12 myotubes, myotube diameter (ImageJ); type: cell-based, mouse; conditions: for prevention of dexamethasone-induced reduction in diameter of C2C12 myotubes (in words): dexamethasone-induced atrophy
Method: C2C12 mouse myoblasts used in this experiment were obtained from the American Type Culture Collection (ATCC). The cells were cultured in Dulbecco's Modified Eagle's Medium (DMEM) containing 10% fetal bovine serum (FBS), 100 U/mL penicillin, and 100 μg/mL streptomycin under conditions of 5% CO2 at 37° C. The C2C12 cells were seeded into 12-well plates and allowed to proliferate until reaching a confluence of 85-90%.
For induction of differentiation, the culture medium was replaced with a differentiation medium composed of DMEM supplemented with 2% horse serum, 100 U/mL penicillin, and 100 μg/mL streptomycin. The medium was replaced every two days, and differentiation was carried out for a total of 6 days.
The diameter of the C2C12 myotubes was measured using the ImageJ cell processing software. For each experimental group, the diameters of 50 individual myotubes were measured to calculate the average and standard error.

[2] = system: C2C12 myotubes; assay: Fusion index of MHC-positive multinucleated C2C12 myotubes after dexamethasone (MHC immunofluorescence); type: cell-based, mouse
Method: The experiment was conducted similarly to Example 3-2. However, Dichotomine B was administered at concentrations of 10 μM and 30 μM.
After completion of treatment, the culture media from each group was removed, and cells were washed twice with phosphate-buffered saline (PBS), fixed with 4% paraformaldehyde for 15 minutes, and washed three times with PBS. The cells were then permeabilized with 0.1% Triton X-100 for 10 minutes, washed twice with PBS, and blocked with 3% horse serum solution for 2 hours. Mouse anti-MHC antibody was diluted 1:100 in 3% BSA and incubated overnight at 4° C. The cells were washed three times with 0.1% PBST. Goat anti-mouse IgG-FITC secondary antibody (Thermo Fisher Scientific) was diluted 1:500 in 3% BSA and reacted for 1 hour at 37° C., followed by three washes with 0.1% PBST. Next, cells were stained with 1 μg/mL Hoechst 33342 solution for 10 minutes at room temperature. Cell imaging was performed using the JuLi™ system. MHC immunofluorescence was visualized in green, and cell nuclei stained with Hoechst 33342 were visualized in blue.
From the results of Section 7-3, randomly selected multinucleated myotubes were analyzed to calculate the fusion index. The number of multinucleated myotubes (i.e., myotubes containing multiple nuclei) was counted and normalized to the total number of cells. The relative number of MHC-positive multinucleated myotubes was determined for each treatment group (see Table 4 and FIG. 13).

[3] = system: MHC, Atrogin-1 and MuRF-1 in C2C12 myotubes; assay: Western blotting of dexamethasone-treated C2C12 myotubes; type: cell-based, mouse; conditions: dexamethasone model, western blot
Method: C2C12 cells were seeded in a 6-well plate at a density of 1×10^5 cells per well. After differentiation was complete, each group was treated with dexamethasone and the test sample according to the respective experimental condition.
Cells were lysed using a lysis buffer containing LIPA buffer, protease inhibitors, and phosphatase inhibitors. A volume of 200 μL of the prepared lysis buffer was added per well, and the cells were collected using a cell scraper. The lysates were centrifuged at 13,000 rpm for 20 minutes, and the supernatants were collected. Protein concentrations were measured using the BCA protein assay method. Equal amounts of protein were separated using 8% SDS-PAGE.
The separated proteins were transferred to a nitrocellulose membrane, followed by blocking with 3% BSA buffer. The membranes were incubated with various primary antibodies (e.g., MHC, FoxO3a, MuRF1, GAPDH), followed by sequential washing, incubation with secondary antibodies, and further washing steps.
Protein expression was detected using enhanced chemiluminescence (ECL), and images were acquired using the ChemiDoc imaging system. Quantification of each protein expression level was performed using ImageJ software.

[4] = system: C2C12 myotubes; assay: In vitro starvation model (serum-free/low-glucose medium), C2C12 myotube diameter and MHC-stained area; type: cell-based, mouse
Method: (§1) Culturing differentiated C2C12 myotubes in serum-free/low-glucose medium inhibits muscle protein synthesis and induces muscle atrophy through increased protein degradation. In this example, C2C12 myotubes differentiated as in Section 8-1 were cultured in serum-free/low-glucose medium to induce atrophy, and the cells were then treated with Dichotomine B under the following specific experimental conditions: • 1. Control group: Differentiated C2C12 myotubes were maintained in normal differentiation medium for 48 hours. • 2. Negative control group: Differentiated C2C12 myotubes were cultured in serum-free/low-glucose medium for 48 hours. • 3 Dichotomine B treatment groups: In the same condition as the negative control group, Dichotomine B was additionally administered at concentrations of 1 μM or 10 μM for 48 hours.
This procedure was conducted in the same manner as described in Section 7-3.
The diameter and staining area of the myotubes were measured as described in Example 3-3. The mean and standard errors were calculated, and the results were organized into Table 6. Each experiment was performed in triplicate.

[5] = system: MHC, FOXO3a, Atrogin-1 and MuRF-1 in C2C12 myotubes; assay: Western blotting in the C2C12 starvation model; type: cell-based, mouse; conditions: western blot
Method: as §1
Western blotting was performed in the same manner as described in Example 7-5 to assess the expression levels of related proteins.

[6] = Body weight of mice with 48-hour fasting; type: in vivo, C57BL/6 male mice; conditions: 10 mg/kg; for Body weight (g), End of Sample Administration: administered twice
Method: (§2) C57BL/6 male mice (6 weeks old) were obtained from Koatech (Pyeongtaek, Gyeonggi-do, Korea) and acclimated for one week in the Hanyang University ERICA Laboratory Animal Center (Animal Facility Registration No. 445) before use in the experiments. The lighting cycle was set to 12 hours (07:00 to 19:00), and food and water were provided ad libitum. All animal experiments were conducted in compliance with the guidelines and regulations of the Institutional Animal Care and Use Committee (IACUC) of Hanyang University.
(§3) After acquisition of the experimental animals and a 7-day acclimation period, the experiment was conducted.
Solid feed for laboratory animals (Woojung Bio, Hwaseong, Gyeonggi-do, Korea) was provided, and all treatments were administered during a fixed time window (10:00 AM to 12:00 PM).
(§4) Body weight was measured three times in total. For the fasting group, each animal was housed individually during the fasting period. The test sample was administered twice: once at the start of the fasting period, and again 24 hours later. Experimental results are presented as means±standard deviation (SD). Statistical significance among groups was analyzed using ANOVA t-tests via the StatView program.
In the non-fasting group, body weight changes were within the normal range. However, in the fasting group (F group), a statistically significant reduction in body weight was observed after 48 hours of fasting (see Table 7).

[7] = system: C57BL/6 male mice; assay: Grip strength of mice after 48-hour fasting (grip strength meter); type: in vivo; conditions: fed mice, 10 mg/kg
Method: as §2, §3, §4
After the completion of the fasting period, grip strength was measured using a grip strength meter.

[8] = system: C57BL/6 male mice; assay: Muscle tissue weights (TA, EDL, GA, SOL) of mice after 48-hour fasting; type: in vivo; conditions: 10 mg/kg
Method: as §2, §3, §4
To evaluate muscle loss, the weights of dissected muscle tissues-including the tibialis anterior (TA), extensor digitorum longus (EDL), gastrocnemius (GA), and soleus (SOL)-were measured post-mortem and summarized in Table 9.

[9] = Dex 10 μM + compound 30 μM, 24 hours
[10] = starvation (serum free/low glucose medium) 48 hours + compound 1 μM
[11] = starvation (serum free/low glucose medium) 48 hours + compound 10 μM
[12] = fed mice (Feed + Dichotomine B)

C[C@@H]1C[C@H]2[C@@H]3CCC4=CC(=O)C=C[C@]4(C)[C@@]3(F)[C@@H](O)C[C@]2(C)[C@@]1(O)C(=O)CO [Dex, Dexamethasone, reference compound]
C2C12 myotube diameter (% of control) ([1]; dexamethasone 10 μM alone, 24 hours (negative control group)): 79.9^a % of control | decrease of C2C12 myotube diameter compared to the control group ([1]; dexamethasone 10 μM vs differentiation medium alone): 21.1% | fusion index of MHC-positive multinucleated C2C12 myotubes (% of control) ([2]; Dex 10 μM alone): 80.0^a % of control

C[C@H](O)c1nc(C(=O)O)cc2c1[nH]c1ccccc12 [Dichotominee A, Dichotomine A]
C2C12 myotube diameter (% of control) [1, 9]: 87.9 % of control

Shaftoside
C2C12 myotube diameter (% of control) [1, 9]: 92.7^c % of control | prevention of dexamethasone-induced reduction in diameter of C2C12 myotubes (in words) [1]: effectively prevented

O=C(O)c1cc2c([nH]c3ccccc32)c([C@@H](O)CO)n1 [Dichotomine B]
C2C12 myotube diameter (% of control) ([1]; Dex 10 μM + compound 10 μM, 24 hours): 97.9^b % of control | C2C12 myotube diameter (% of control) [1, 9]: 98.2^b % of control and 100.6^b % of control | prevention of dexamethasone-induced reduction in diameter of C2C12 myotubes (in words) [1]: effectively prevented | fusion index of MHC-positive multinucleated C2C12 myotubes (% of control) ([2]; Dex 10 μM + compound 10 μM): 90.3^b % of control | fusion index of MHC-positive multinucleated C2C12 myotubes (% of control) ([2]; Dex 10 μM + compound 30 μM): 92.3^b % of control | fusion index of multinucleated C2C12 myotubes (in words) ([2]; dexamethasone model): significantly improved the fusion index | MHC expression [3]: increased in a concentration-dependent manner | expression of Atrogin-1 and MuRF-1 [3]: reduced | C2C12 myotube diameter (% of control) [4, 10]: 98.6 + 9.3^b % of control | MHC positive area (% of control) [4, 10]: 93.6 + 7.8^b % of control | C2C12 myotube diameter (% of control) [4, 11]: 100.4 ± 10.8^b % of control | MHC positive area (% of control) [4, 11]: 97.1 ± 8.4^b % of control | effect on starvation-induced changes of MHC, FOXO3a, Atrogin-1 and MuRF-1 expression [5]: effectively reversed these effects | Body weight (g), Start of Sample Administration [6, 12]: 21.080 ± 0.370 g | Body weight (g), End of Sample Administration [6, 12]: 21.400 ± 0.339 g | effect on body weight (in words) ([6]; mice, 48-hour fasting): no significant effect on body weight | Body weight (g), Start of Sample Administration ([6]; starved mice (Starvation + Dichotomine B)): 22.214 ± 0.701 g | Body weight (g), End of Sample Administration ([6]; starved mice, 48-hour fasting): 17.743 ± 0.885 g | Grip Strength (gf) [7]: 190 ± 11.7 gf | Extensor Digitorum Longus (EDL) weight ([8]; fed mice): 0.012 ± 0.002 g | Gastrocnemius (GA) weight ([8]; fed mice): 0.169 ± 0.014 g | Soleus (SOL) weight ([8]; fed mice): 0.010 ± 0.001 g | Tibialis Anterior (TA) weight ([8]; fed mice): 0.058 ± 0.006 g | Extensor Digitorum Longus (EDL) weight ([8]; starved mice, 48-hour fasting): 0.014 ± 0.004 g | Gastrocnemius (GA) weight ([8]; starved mice, 48-hour fasting): 0.165 ± 0015 g

Glucodichotomine B
C2C12 myotube diameter (% of control) [1, 9]: 102.0^b % of control | prevention of dexamethasone-induced reduction in diameter of C2C12 myotubes (in words) [1]: effectively prevented

O=c1cc(-c2ccc(O)cc2)oc2c([C@@H]3O[C@H](CO)[C@@H](O)[C@H](O)[C@H]3O)c(O)c([C@@H]3OC[C@H](O)[C@H](O)[C@H]3O)c(O)c12 [Isoshaftoside]
C2C12 myotube diameter (% of control) [1, 9]: 95.7^c % of control | prevention of dexamethasone-induced reduction in diameter of C2C12 myotubes (in words) [1]: effectively prevented
